Reference: ChEMBL document CHEMBL4219203, “Design, synthesis and biological evaluation of seco-A-pentacyclic triterpenoids-3,4-lactone as potent non-nucleoside HBV inhibitors” (Bioorg Med Chem Lett, 2018)
The source made the active and inactive calls. No cut-off for these calls is given here.

Assays:
Hepatitis B virus [1] = assay: Antiviral activity against Hepatitis B virus infected in human HepG2.215 cells assessed as inhibition of HBsAg secretion after 3 days by ELISA; format: functional, organism-based; details: HepG2.2.15, 72 h
Hepatitis B virus [2] = assay: Antiviral activity against Hepatitis B virus infected in human HepG2.215 cells assessed as inhibition of HBeAg secretion after 3 days by ELISA; format: functional, organism-based; details: HepG2.2.15, 72 h
[3] = Cytotoxicity against human HepG2.215 cells assessed as reduction in cell viability after 3 days by MTT assay; format: cell-based, HepG2 2.2.15; details: HepG2.2.15 cells
[4] = Selectivity index, ratio of CC50 for human HepG2.215 cells to IC50 for Hepatitis B virus infected in human HepG2.215 cells assessed as inhibition of HBsAg secretion; format: toxicity, cell-based; details: HepG2.2.15 cells (Hepatitis B virus infected), read-out: Ratio CC50/IC50
[5] = Selectivity index, ratio of CC50 for human HepG2.215 cells to IC50 for Hepatitis B virus infected in human HepG2.215 cells assessed as inhibition of HBeAg secretion; format: toxicity, cell-based; details: HepG2.2.15 cells (Hepatitis B virus infected), read-out: Ratio CC50/IC50
Hepatitis B virus [6] = assay: Antiviral activity against Hepatitis B virus infected in human HepG2.215 cells assessed as reduction in cellular viral DNA level at 25 uM after 9 days by real time QF-PCR analysis relative to control; format: functional; details: for inhibition at 25 µM: HepG2.2.15, 216 h
[7] = Selectivity index, ratio of CC50 for human HepG2.215 cells to IC50 for Hepatitis B virus infected in human HepG2.215 cells assessed as reduction in covalently closed circular DNA level; format: toxicity, cell-based; details: HepG2.2.15 cells (Hepatitis B virus infected), read-out: Ratio CC50/IC50
Hepatitis B virus [8] = assay: Antiviral activity against Hepatitis B virus infected in human HepG2.215 cells assessed as reduction in covalently closed circular DNA level after 9 days by real time QF-PCR analysis; format: functional, organism-based; details: HepG2.2.15, 216 h
Hepatitis B virus [9] = assay: Antiviral activity against Hepatitis B virus infected in human HepG2.215 cells assessed as inhibition of HBeAg secretion by measuring FITC-labeled monoclonal mouse HBeAg antibody non-labeled cells level at 6.25 uM after 3 days by flow cytometry (reference value: 0.5%); format: functional; details: HepG2.2.15, 72 h
Hepatitis B virus [10] = assay: Antiviral activity against Hepatitis B virus infected in human HepG2.215 cells assessed as inhibition of HBeAg secretion by measuring FITC-labeled monoclonal mouse HBeAg antibody non-labeled cells level at 12.5 uM after 3 days by flow cytometry (reference value: 0.5%); format: functional; details: HepG2.2.15, 72 h
Hepatitis B virus [11] = assay: Antiviral activity against Hepatitis B virus infected in human HepG2.215 cells assessed as inhibition of HBeAg secretion by measuring FITC-labeled monoclonal mouse HBeAg antibody non-labeled cells level at 25 uM after 3 days by flow cytometry (reference value: 0.5%); format: functional; details: HepG2.2.15, 72 h

Row | SMILES | IC50 (Hepatitis B virus [1]) [µM] | IC50 (Hepatitis B virus [2]) [µM] | CC50 at 72 h [3] [µM] | selectivity ratio [4] | selectivity ratio [5] | inhibition (Hepatitis B virus [6]) | inhibition at 25 µM (Hepatitis B virus [6]) [%] | selectivity ratio [7] | IC50 (Hepatitis B virus [8]) [µM] | inhibition at 6.25 µM (Hepatitis B virus [9]) [%] | inhibition at 12.5 µM (Hepatitis B virus [10]) [%] | inhibition at 25 µM (Hepatitis B virus [11]) [%]
1 | C[C@H]1C(=O)CC[C@@H]2[C@]1(C)CC[C@H]1[C@@]2(C)CC[C@@]2(C)[C@@H]3CC(C)(C)CC[C@]3(C)CC[C@]12C [FRIEDELINE] | 1210 | 1250 | 1790 | 1.48 | 1.43 |  |  |  |  |  |  | 
2 | CC1(C)[C@@H](O)CC[C@]2(C)[C@H]3C(=O)C=C4[C@@H]5C[C@@](C)(C(=O)O)CC[C@]5(C)CC[C@@]4(C)[C@]3(C)CC[C@@H]12 [ENOXOLONE] | 510 | 806 | 650 | 1.27 | 0.81 |  |  |  |  |  |  | 
3 | CC1(C)OC(=O)CC[C@]2(C)[C@H]3C(=O)C=C4[C@@H]5C[C@@](C)(C(=O)O)CC[C@]5(C)CC[C@@]4(C)[C@]3(C)CC[C@@H]12 | 171 | 81.9 | 546 | 3.2 | 6.67 | Active |  |  |  |  |  | 
4 | CC1(C)CC[C@]2(C(=O)O)CC[C@]3(C)C(=CC[C@@H]4[C@@]5(C)CC[C@H](O)C(C)(C)[C@@H]5CC[C@]43C)[C@@H]2C1 [OLEANOLIC_ACID] | 1360 | 814 | 731 | 0.53 | 0.9 |  |  |  |  |  |  | 
5 | C[C@H]1OC(=O)CC[C@@H]2[C@]1(C)CC[C@H]1[C@@]2(C)CC[C@@]2(C)[C@@H]3CC(C)(C)CC[C@]3(C)CC[C@]12C [FRIEDELIN-3,4-LACTONE] | 765 | 790 | 482 | 0.63 | 0.61 |  |  |  |  |  |  | 
6 | CC(C)(O)[C@@H]1CC[C@]2(C)[C@H](C(=O)C=C3[C@@H]4C[C@@](C)(C(=O)O)CC[C@]4(C)CC[C@]32C)[C@@]1(C)CCC(=O)O | 259 | 257 | 2040 | 7.87 | 7.95 |  | 91.4 | 166 | 12.3 |  |  | 
7 | CC1(C)CC[C@]2(C(=O)O)CC[C@]3(C)C(Br)(CC[C@@H]4[C@@]5(C)CCC(=O)OC(C)(C)[C@@H]5CC[C@]43C)[C@@H]2C1 (some centres not stated) | 305 | 92.3 | 485 | 1.59 | 5.21 |  |  |  |  |  |  | 
8 | CC1(C)CC[C@@]23CC[C@]4(C)[C@@](OC2=O)([C@@H]3C1)[C@@H](O)C[C@@H]1[C@@](C)(CCC(=O)O)[C@H](C(C)(C)O)CC[C@]14C | 340 | 112 | 452 | 1.32 | 4.04 | Active |  |  |  |  |  | 
9 | CC1(C)CC[C@@]23CC[C@]4(C)[C@@](OC2=O)([C@@H]3C1)[C@@H](O)C[C@@H]1[C@@]2(C)CCC(=O)OC(C)(C)[C@@H]2CC[C@]14C | 286 | 149 | 540 | 1.57 | 3.03 | Active |  |  |  |  |  | 
10 | C[C@H]1[C@H](C)CC[C@]2(C(=O)O)CC[C@]3(C)C(=CC[C@@H]4[C@@]5(C)CC[C@H](O)C(C)(C)[C@@H]5CC[C@]43C)[C@H]12 [URSOLIC ACID] | 1360 | 897 | 1540 | 1.13 | 1.72 |  |  |  |  |  |  | 
11 | CC1(C)CC[C@]2(C(=O)O)CC[C@]3(C)C(=CC[C@@H]4[C@@]5(C)CCC(=O)OC(C)(C)[C@@H]5CC[C@]43C)[C@@H]2C1 | 360 | 0.86 | 477 | 1.32 | > 200 |  | 81.6 | 14.5 | 32.7 | 6.2 | 10.6 | 34
12 | CC1(C)CC[C@]2(C(=O)O)CC[C@]3(C)C(Br)(CC[C@@H]4[C@@]5(C)CCC(=O)C(C)(C)[C@@H]5CC[C@]43C)[C@@H]2C1 (some centres not stated) | 883 | 925 | 100 | 0.11 | 0.1 |  |  |  |  |  |  | 
13 | CC1(C)CC[C@]2(C(=O)O)CC[C@]3(C)C(=CC(=O)[C@@H]4[C@@]5(C)CCC(=O)OC(C)(C)[C@@H]5CC[C@]43C)[C@@H]2C1 | 321 | 0.14 | 583 | 1.81 | > 200 |  | 82.6 | 17.4 | 33.5 | 7.7 | 7.8 | 33.5
14 | C[C@H]1[C@H](C)CC[C@]2(C(=O)O)CC[C@]3(C)C(=CC[C@@H]4[C@@]5(C)CCC(=O)OC(C)(C)[C@@H]5CC[C@]43C)[C@H]12 | 284 | 176 | 406 | 1.43 | 2.3 |  |  |  |  |  |  | 
15 | C[C@H]1[C@H](C)CC[C@]2(C(=O)O)CC[C@]3(C)C(=CC[C@@H]4[C@@](C)(CCC(=O)O)[C@H](C(C)(C)O)CC[C@]43C)[C@H]12 | 406 | 384 | 461 | 1.13 | 1.2 |  |  |  |  |  |  | 
16 | Nc1ccn([C@H]2CS[C@@H](CO)O2)c(=O)n1 | 917 | 1440 | 876 |  |  |  | 92.8 |  |  |  |  | 
